This is an account of results in patent US20040191842A1, “Chemopreventive and therapeutic aspects of polyphenolic compositions and assays” (Medical College of Georgia Research Institute, Inc., priority 2002, published 2004).

One data set has as its system caspase 3. The data set can be described thus: Caspase 3 activity assay, caspase 3 null MCF7 cells. Format: cell-based, human. The following applies: increasing EGCG or 0.2 mg/ml GTPPs, 24 h. How it is done:
Caspase 3 activity assay. The Caspase 3 Apoptosis Detection Kit was purchased from Santa Cruz Biotech. Inc. In a 24 well tissue culture plate, 10^5 cells/well of cells in triplicates were plated. […] To each well, 100 μl of 2×reaction buffer was added with […]. Finally, 5 μl of DEVD-AFC substrate was added to each well containing cell lysates. The reaction mixtures were incubated for 1 hour at 37° C. The caspase 3 activity in each well was measured using a fluorescence microplate reader set for 405 nm excitation and 505 nm emission.

The next data set deals with OSC-2 cells. Nature of the data set: MTT assay (mitochondrial SDH activity), OSC2 (OSC-2) cells. The following applies: increasing EGCG and 0.2 mg/ml GTPPs, 24 hour.
The test system of a further data set is catalase. The data set can be described thus: Catalase activity assay in cell lysates. Format: cell-based, human. How it is done: Assays for SOD and catalase activities. Cells (1×10^6 cells/well) were incubated with or without EGCG (50 μM) in FilterCap 50 ml flasks (Nagel Nunc International, Rochester, N.Y.) for 30 minutes at 37° C. After the incubation, cells were harvested and disrupted in 100 μl of 10 mM Tris-HCl (pH 7.4) containing 0.1%(v/v) Triton X-100, 10 μg/ml leupeptin, 10 μg/ml pepstatin A and 100 mM phenylmethylsulfonyl fluoride by three cycles of freezing/thawing. After centrifugation at 17,000×g for 20 minutes at 4° C., the supernatants were used for SOD and catalase assays using the SOD Assay Kit-WST (Dojindo Molecular Technologies, Inc., Gaithersburg, Md.) and the AMPLEX Red Catalase Assay Kit (Molecular Probes), respectively. The activities of SOD and catalase were calibrated using a standard curve prepared with purified human SOD and catalase. The activities of SOD and catalase were expressed as units (U)/10^6 cells.
Assays for SOD and catalase activities. Cells (10^5 cells/well) were incubated with or without EGCG (50 μM) in 24-well culture plates for desirable time periods at 37° C. After the incubation, cells were harvested and disrupted in 100 μl of 10 mM Tris-HCl (pH 7.4) containing 0.1% (v/v) Triton ×-100, 10 μg/ml leupeptin, 10 μg/ml pepstatin A and 100 mM PMSF by three cycles of freezing/thawing. After centrifugation at 17,000×g for 20 minutes at 4° C., the supernatants were used for SOD and catalase assays using the SOD Assay Kit-WST (Molecular Technologies, Inc., Gaithersburg, Md.) and the Amplex Red Catalase Assay Kit (Molecular Probes), respectively. The activities of SOD and catalase were calibrated using a standard curve prepared with purified human SOD and catalase. The activities of SOD and catalase were expressed as units (U)/10^6 cells.

The test system of data set [1] is NHEK. The data set can be described thus: Intracellular ROS levels (DFDA assay), NHEK. Format: cell-based, human. The following applies: EGCG 15-200 μM, up to 120 minutes. How it is done:
Measurement of intracellular ROS levels. The ROS assay measures the accumulation of intracellular ROS levels. The non-fluorescent dye DFDA passively diffuses into cells, where the acetates are cleaved by intracellular esterases. […] Thus, values of the fluorescence in the cell cultures are constantly rising in this assay. […] The intracellular ROS levels were measured by using a fluorescence plate reader (BIO-TEK FL600, Bio-Tek Instruments, Inc., Winooski, Vt.), at an excitation wavelength of 485 nm and an emission wavelength of 530 nm.

Data set [2] deals with normal human mammary epithelial cells (HMEC). The data set can be described thus: Morphology of mammary epithelial cells. Format: cell-based. Conditions: 50 μM EGCG. How it is done: Cell lines and cell culture. The normal human keratinocytes (NHEK CC-2507) were purchased from Cambrex (East Rutherford, N.J.) and maintained in KGM-2 medium (Cambrex). The OSC2 cell line was previously described in Example 1. The OSC2 subclones were established by retroviral transfection of the parental OSC2 cell line. These clones were maintained in 45% Dulbecco's Modified Eagle's Medium (DMEM), 45% Ham's F12 medium and 10% fetal calf serum, 100 I.U/ml penicillin, 100 μg/ml streptomycin and 5 μg/ml hydrocortisone. The normal human mammary epithelial cells (HMEC) were maintained in MEGM medium (Cambrex). All cell cultures were maintained in a 37° C. incubator with 5% CO2. Light photographs were taken with a SPOT RT digital camera system (Diagnostic Instruments, Sterling Heights, Mich.) linked to a Nikon Phase Contrast-2 microscope at an original magnification of 400×. Fluorescent photomicrographs were taken with a SPOT color digital camera system using the ZEISS Axiovert 10. Fluorescence was generated by a ZEISS AttoArc 2 source with an original magnification of 400×. Experiments were repeated three times.

For data set [3], the system named is NHEK. Nature of the data set: Light microscopy of NHEK grown alone. Format: cell-based, human. The following applies: 100 μM EGCG, 24 hour.
The subject of the next data set is Apaf-1. Nature of the data set: Western blot of Apaf-1 in epidermal keratinocytes. Format: cell-based, human. The following applies: increasing concentrations of EGCG. How it is done: Western blot analysis. The keratinocytes and the mammary epithelial cells were placed in KGM-2 and MEGM, respectively, overnight prior to treatment. Cells were lysed, after 24-hour treatment, in RIPA buffer (1% NP-40, 1% sodium deoxycholate, 0.1% SDS, 0.15 M NaCl, 0.01 M sodium phosphate, pH 7.2, and 1% Trasylol) containing proteinase inhibitors (1 mM PMSF, 1 μg/ml each of aprotinin, leupeptin, and pepstatin). The concentration of protein in each sample was determined using the BioRad DC Protein Assay and spectrophotometry. 50 μg of protein from each sample and a BioRad molecular weight standard marker were run on a 10% SDS-PAGE, followed by transfer to nitrocellulose membranes. Nonspecific binding to the membranes was blocked with 10% nonfat milk. Primary polyclonal (rabbit) antibodies and a horseradish peroxidase-conjugated goat anti-rabbit secondary antibody were used in conjunction with the ECL Chemiluminescence Kit (Amersham Pharmacia Biotech, New Jersey) and membranes were exposed to radiographic films for detection. Western blots were digitized for comparison of the intensity for each band using the ImageTool image analysis software program (University of Texas Health Science Center, San Antonio, Tex.). The integrated density of each band was measured using identical 1480 pixel areas of each Apfa-1 or Actin band at a scale of densities from 0 to 255. […]
Background: Immunoblotting shows a protein as a band on a membrane.

For data set [4] the following is noted: daily topical 30 mg/ml EGCG for 30 days; cited from earlier work.

Entries after “also recorded” stand apart in the source; their conditions may differ.

Method for OSC-2 cells: This method detects the activity of mitochondrial succinate dehydrogenase (SDH). In a 96-well plate, 1.5×10^4 cells were seeded in each well. After variety of treatments, 100 μl of 2% MTT was added to each well and the plate was incubated at 37° C. for 30 minutes. 100 μl of 0.2 M Tris (pH 7.7) with 4% formalin was added to each well. After incubation at room temperature for 5 minutes, liquid was removed and the wells were allowed to dry. Each well was rinsed with 200 μl water followed by addition of 100 μl DMSO (6.35% 0.1 N NaOH in DMSO) to each well. The coloration was measured by a Thermo MAX microplate reader (Molecular Devices Corp. Sunnyvale, Calif. using wavelengths of 562 nm. Experiments were repeated three times with triplicate samples for each experiment.
This method directly detects the activity of mitochondrial succinate dehydrogenase (SDH). Changes in SDH activity is a measurement of cell viability when stress is introduced in cell culture through chemical or physical means. Cells (1.5×10^4 cells/well) were seeded in a 96-well microplate and treated with the indicated doses of EGCG for 24 hours. After the treatment, the cells in each well were washed with 200 μl of phosphate-buffered saline (PBS), incubated with 100 μl of 2% MTT in a solution of 0.05 M Tris, 0.5 mM MgCl2, 2.5 mM CoCl2, and 0.25 M disodiumn succinate as substrate (Sigma) at 37° C. for 30 minutes. Cells were fixed in situ by the addition of 100 μl of 4% formalin in 0.2 M Tris (pH 7.7), and after a 5 minute incubation at room temperature liquid was removed and the wells were allowed to dry. Each well was rinsed with 200 μl water and cells were solubilized by the addition of 100 μl of 6.35% 0.1 N NaOH in DMSO. The colored formazan product was measured by a Thermo MAX micro plate reader (Molecular Devices Corp., Sunnyvale, Calif.) at a wavelength of 562 nm. […]
This method directly detects the activity of mitochondrial succinate dehydrogenase (SDH). […] Solubilized colored formazan product was measured using a Thermo MAX microplate reader (Molecular Devices Corp., Sunnyvale, Calif.) at a wavelength of 562 nm.

Turning to `O=C(O[C@@H]1Cc2c(O)cc(O)cc2O[C@@H]1c1cc(O)c(O)c(O)c1)c1cc(O)c(O)c(O)c1` [EGCG, (−)-epigallocatechin-3-gallate], in the data set with caspase 3, the “caspase 3 activity” value is “did not show caspase 3 activity”. Moreover, the SDH activities entry with OSC-2 cells is given as “decreased”. The catalase activity result in the data set on catalase (50 μM EGCG, 30 minutes, NHEK, OSC-2, OSC-4) is on record as “Significant changes in catalase activity was not observed”. The “catalase activity in OSC-4 cells” value with catalase (EGCG, 24-hour treatment period) is on record as “slight decrease”. Besides, the “catalase and total SOD enzymatic activity levels” value in the data set with catalase (EGCG, 24-hour treatment period, NHEK, OSC-2, OSC-4) is “had no effect on the enzymatic activity levels”. In the data set on NHEK [1], the “intracellular ROS levels” value was “significantly reduced immediately after the addition of EGCG; also recorded: reduce ROS to background levels”. In data set [2] (24 hours), the morphology result is listed as “little change in morphology”. Moreover, the values for the cell death entry (in data set [2] (48 hours); in the data set on NHEK [3]) were “Significant cell death was observed” and “showed no cell death”, respectively. Moreover, in the data set on Apaf-1, the Apaf-1 levels result is on record as “stable basal levels of Apaf-1”. The dermal toxicity result in data set [4] is “failed to induce dermal toxicity”.
